Here are results for one compound from patent publication US9968557B1, “Method of preparing modified multilayered microstructures with enhanced oral bioavailability” (Florida A&M University, priority 2011, dated 2018).

Molecules are shown by their SMILES. In brackets after ≈: the same amount, converted by molar mass.

For orientation: solubility means the dissolved amount per volume that the medium holds. A low value points to little dissolved substance.

Data set [1] is described as follows: Partition co-efficient in an octanol-water system. It is filed as physicochemical. The conditions noted are these: octanol-water 1:1. The method, then:
(§1) Solubility measurements were assayed by HPLC. Five milligrams of DIM-C-pPhC6H5 (“DIM-P”) was suspended in 1 ml of different buffers having pH 2.0, 4.0, 5.0, 6.0, 7.0 and 8.0 in a centrifuge tubes. The tubes were placed at 37±0.1° C. and kept for shaking at 1500 rpm for 24 hours. The suspensions were centrifuged, and supernatant were filtered using 0.1 μm filters prior to HPLC analysis. Partition co-efficient of DIM-P was measured in an octanol-water system. Octanol and water were mixed in 1:1 concentration and 3 mg of DIM-P was added to 2 mL of mixture followed by vigorous shaking for 5 minutes. The mixture was separated by centrifugation and samples were collected and filtered through 0.1 μm filters prior to HPLC analysis.

Data set [2] in a line: Solubility of DIM-P in buffers of different pH, assayed by HPLC. It is filed as physicochemical. The protocol:
as §1

`c1ccc(-c2ccc(C(c3c[nH]c4ccccc34)c3c[nH]c4ccccc34)cc2)cc1` [DIM-P, DIM-C-pPhC6H5]: the log p value in data set [1] is given as 6.97±0.12. Also, the solubility entry in data set [2] (at any pH) is “less than 1 μg/mL”; in data set [2] (pH 2.0, 37°C, 24 hours shaking) it was 0.18 ± 0.003 µg/mL (≈ 0.452 µM). Besides, in data set [2] (pH 8.0, 37°C, 24 hours shaking), the Maximum solubility was 0.73 ± 0.09 µg/mL. In addition, the sequence of solubility result in data set [2] (rank order by pH) is recorded as “pH 8.0>6.0>4.0>2.0”.
